The values below come from patent US20040002537A1, “Use of statins in the treatment of autoimmune disease” (priority 2002, published 2004).

Series [1] has as its system MOG p35-55-induced EAE in C57BL/6 mice. Briefly: MOG p35-55-induced chronic EAE, oral atorvastatin. Type of series: in vivo, mouse. The following applies: daily oral.
Series [2] concerns MBP Ac1-11-induced EAE in MBP Ac1-11 Tg mice. Put plainly: MBP Ac1-11-induced acute EAE, oral atorvastatin. The following applies: FIG. 1E. In kind it is in vivo, mouse.
Series [3] deals with Th1/Th2 cytokines (IL-2, IFN-γ, IL-4, IL-10). Put plainly: Cytokine profile determination by ELISA, ex vivo lymph node and spleen cells. In kind it is in vivo, mouse. The procedure:
Cytokine Profile Determination. Lymph node cells and spleen cells from EAE donors were stimulated in vitro (2.5×10^6 cells/ml) in 24-well plates with or without the encephalogenic peptide or with […] as positive control. Cell culture supernatants were collected at different time points for measurements of cytokine levels: 48 hours for IL-2 , 72 hours for IFN-γ and TNF α, and 120 hours for […]. Cytokine levels were determined using specific ELISA kits for the corresponding cytokines according to the manufacturer's protocols (PharMingen, San Diego, Calif., USA).

In series [4] the test system is STAT6. Briefly: Western blot for STAT6 phosphorylation in draining lymph node cells of treated mice. In kind it is in vivo, mouse. The following applies: SJL/J mice, 1 mg/kg and 10 mg/kg oral, 10 days after EAE induction, FIG. 5 lanes 2 and 3. As to the method:
(§1) Western Blot Analysis for STAT-6 and STAT-4 Phosphorylation. Western Blot analysis was performed as described in Garren et al. (2001) Immunity 15:15, with minor modifications. Lymph nodes from control and atorvastatin-treated mice were homogenized in T-PER protein extraction buffer (Pierce,), with 20 μg/ml aprotinin, 20 μg/ml leupeptin, 1.6 mM Pefablock SC (Roche), 10 mM NaF, 1 mM Na3VO4 and 1 mM Na4P2O7 (Sigma, St. Louis, Mo.). All procedures were handled on ice. As a positive control, lymph node cells from naive mice were isolated and cultured for one hour with mouse recombinant IL-4 (10 ng/ml) or INF-γ (100 units/ml), for STAT6 and STAT4 expression respectively. Protein concentrations were determined by BCA protein assay (Pierce). Lysate was added to 3×SDS loading buffer (Cell Signaling Technology) with 40 mM DTT. Products were separated by electrophoresis on a 4-15% SDS-PAGE gradient gel (BioRad). Pre-stained markers (Invitrogen) were used to determine MW. Gels were blotted to PVDF membranes at 100 V in 25 mM Tris, 192 mM glycine and 20% (v/v) methanol, then blocked 1 hr at RT with Tris-buffered saline (TBS) containing 0.1% Tween-20 and 5% nonfat dry milk. […]

The test system of series [5] is PLP p139-151-stimulated spleen cells. The procedure: Ag Specific Ex-vivo T Cell Proliferation Assay. […] Lymph node cells (LNCs) or splenocytes were cultured in vitro for specific proliferative response to the specific encephalogenic peptide (PLP 139-151, MOG 35-55 or MBP Ac1-11, respectively). LNCs were prepared in 96-well microtiter plates in a volume of 0.2 ml/well at a concentration of 5×10^6 cells/ml. The culture medium consisted of enriched RPMI (RPMI 1640 supplemented with L-glutamine [2 mM], sodium pyruvate [1 mM], nonessential amino acids [0.1 mM], penicillin [100 U/ml], streptomycin [0.1 mg/ml], 2-ME [5×10^−5 M]) supplemented with 1% autologous fresh normal mouse serum with the addition of different peptides concentrations. Cultures were incubated in 37° C. in humidified air containing 5% CO2. Cultures taken from SJL/J or C57BL/6 mice were incubated for 72h whereas cultures from MBPAc-1-11 Tg mice were incubated for 48 hours and then were pulsed for 18 hr with 1 μCi/well of [^3H] thymidine. The cells were then harvested and counted in a β counter.

Series [6] concerns MHC II. The following applies: through the effect on the CIITA p IV gene; cited from earlier work.
The test system of series [7] is PLP p139-151-induced EAE in SJL/J mice. Put plainly: PLP p139-151-induced relapsing EAE, oral atorvastatin. Type of series: in vivo, mouse.
Series [8] concerns microglia and astrocytes. The following applies: cited from earlier work.
The test system of series [9] is STAT6. Briefly: Western blot for STAT6 phosphorylation, naive lymph node cells cultured with IL-4 (positive control). The following applies: 10 ng/ml for one hour, FIG. 5 lane 4. Type of series: cell-based, mouse. As to the method: as §1

Consider `CC(C)c1c(C(=O)Nc2ccccc2)c(-c2ccccc2)c(-c2ccc(F)cc2)n1CC[C@@H](O)C[C@@H](O)CC(=O)O` [atorvastatin], for which the “EAE clinical score, treatment starting at EAE onset” value in series [1] (C57Bl/6 female mice, 1 mg/kg or 10 mg/kg, FIG. 1A) was “suppressed EAE induction”. Besides, the “EAE clinical score, treatment after onset” value in series [1] (C57Bl/6 mice, FIG. 1B) is listed as “ameliorated EAE”. Also, the “Acute EAE progression” value in series [2] is “successfully prevented acute EAE progression”. Further, the “Th2 bias (proliferation and cytokines) in other strains” value in series [3] (C57BL/6 and MBP Ac1-11-specific transgenic mice) is reported as “almost identical Th2 bias”. Further, the “Secretion of IL-10” value in series [3] (SJL/J mice, 10 mg/kg, ELISA, FIG. 4E) is on record as “observed at the higher treatment dose”. In series [3] (SJL/J mice, 1 and 10 mg/kg, ELISA, FIG. 4B), the “Production of IL-2” value was “reduced, although to a much greater extent in mice treated with 10 mg/kg”. Besides, the “Secretion of IFN-γ” value in series [3] (SJL/J mice, both treatment doses (1 and 10 mg/kg), ELISA, FIG. 4C) is “dramatic reduction”. Also, the IL-4 secretion result in series [3] (SJL/J mice, both treatment doses (1 and 10 mg/kg), ELISA, FIG. 4D) is given as “induced at both treatment doses”. Moreover, the “Phosphorylated STAT6 in lymph nodes (Western blot)” value in [4] is “phosphorylated STAT6 is seen”. The “PLP p139-151-specific proliferative responses (3H-thymidine incorporation)” value in series [5] (cells from SJL/J mice treated with 1 or 10 mg/kg, FIG. 4A) is on record as “suppressed in a dose-related fashion”. Further, the “Cell death in the in vitro cultures” value in series [5] (lymphocytes from treated mice) is “not observed increased cell death”. In addition, the “Expression of MHC II” value in series [6] is on record as “could inhibit the expression of MHC II”. The “Ongoing relapsing EAE, treatment begun after recovery from acute EAE” value in series [7] (FIG. 1D) is given as “reversal of ongoing relapsing EAE”. The “Prevention of relapsing EAE” value in series [7] (treatment at onset, FIG. 1C) is recorded as “effective in prevention of relapsing EAE”.
For the molecule `CC[C@H](C)C(=O)O[C@H]1C[C@@H](C)C=C2C=C[C@H](C)[C@H](CC[C@@H]3C[C@@H](O)CC(=O)O3)[C@H]21` [lovastatin], in [8], the “Production of iNOS and proinflammatory cytokines (TNFα, IL-1β and IL-6)” value is listed as “inhibited production”.

B1: mouse recombinant IL-4: mouse recombinant IL-4 (10 ng/ml), positive control for STAT6 phosphorylation (protein, UniProt P07750 21-140, looked up)
Interleukin-4: HIHGCDKNHLREIIGILNEVTGEGTPCTEMDVPNVLTATKNTTESELVCRASKVLRIFYLKHGKTPCLKKNSSVLMELQRLFRAFRCLDSSISCTMNESKSTSLKDFLESLKSIMQMDYS
In the case of B1, in [9], the “Phosphorylated STAT6 in naive lymph node cells (Western blot)” value is reported as “phosphorylated STAT6 is seen”.
